Data published in publication PMC9449960, “Pamoic acid is an inhibitor of HMGB1·CXCL12 elicited chemotaxis and reduces inflammation in murine models of Pseudomonas aeruginosa pneumonia” (Molecular Medicine, 2022).

Experiments:
HMGB1 = molecular target: T1, HMGB1 (Mus musculus, UniProt P63158); assay: NMR 1H-15N HSQC titration with lineshape analysis; STD, waterLOGSY, NOEs; assay type: binding
T1 construct: residues 1–215
T1 sequence (P63158 1-215): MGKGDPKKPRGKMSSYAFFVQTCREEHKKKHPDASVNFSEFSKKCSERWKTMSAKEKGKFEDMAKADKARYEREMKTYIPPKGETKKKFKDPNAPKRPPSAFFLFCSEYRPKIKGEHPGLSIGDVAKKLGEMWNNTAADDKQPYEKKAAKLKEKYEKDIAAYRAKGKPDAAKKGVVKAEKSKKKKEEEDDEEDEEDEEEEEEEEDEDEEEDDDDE

CXCL12 = molecular target: T2, CXCL12 (Homo sapiens, UniProt P48061); assay: NMR titration of […]-CXCL12 (chemical shift perturbation); assay type: binding
T2 construct: recombinant human CXCL12
T2 sequence (P48061 22-93): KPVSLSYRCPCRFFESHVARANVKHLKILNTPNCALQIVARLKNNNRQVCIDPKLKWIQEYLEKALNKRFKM

Compound: O=C(O)c1cc2ccccc2c(Cc2c(O)c(C(=O)O)cc3ccccc23)c1O [PAM, pamoic acid]
- Kd (HMGB1): 170 ± 17 µM
- Kd (CXCL12): 66 ± 4 µM
